Experimental findings from patent US20220296627A1, “Cytidine Derivatives and Methods of Forming Cytidine Derivatives” (Aenorasis Commercial Company of Pharmaceutical and Medical …, priority 2019, published 2022) are described below.

Holding throughout (assay type): cell-based
The subject of assay [1] is SW1573/WT wild type non-small lung human cell line. As to the kind of experiment: Cell growth assay (SRB) in SW1573/WT. As to conditions: for IC50: Homo sapiens, SW1573, SW 1573/WT; for Ratio of IC50 in the presence of, compared to in the absence of, dipyridamole / Ratio of IC50 in the presence of dipyridamole / IC50 in the absence of dipyridamole: SW 1573/WT; for Ratio of IC50 in the presence of, compared to in the absence of, dipyridamole: acetylated 4-N-acyl derivatives (Table 7); for Ratio of IC50 in the presence of dipyridamole / IC50 in the absence of dipyridamole: 4-N-acyl and 4-N-phosphoryl derivatives (Table 5). The procedure: (§1) Biological activities of the Gemcitabine derivative (which may be referred to as analogues) described above were evaluated with two assays: • 1. Cell growth assay using the SRB assay in cell lines A549/WT, SW1573/WT, PANC-01 and BXPC-3. • 2. MTT assay in human bladder cancer cell line T-24
(§2) The following cell lines were tested: • A549/WT —wild type human lung adenocarcinoma cell line (1) • SW1573/WT —wild type non-small lung human cell line (2), • PANC-01—human pancreatic cancer cell line (3) • BXPC-3 -epithelial human pancreatic adenocarcinoma cells (4).
(§3) Dipyridamole inhibits adenosine uptake by erythrocytes platelets and endothelial cells in vitro and in vivo. Thus, the present inventors recruited dipyridamole as an inhibitor of the nucleoside transporters of the tumour cells to observe the behaviour of the presently described Gemcitabine derivatives.
(§4) From the IC50 of each compound in the presence of dipyridamole, by dividing it with the IC50 of each compound in the absence of dipyridamole, the present inventors calculated a ratio that compared the efficacy of the analogous presence of dipyridamole.
(§5) Ratio=IC50 in the presence of dipyridamole/IC50 in the absence of dipyridamole • FIG. 10. Ratio of IC50 of 4-N-acyl and 4-N-phosphoryl derivatives in the presence of, compared to in the absence of, dipyridamole, in four cell lines

For assay [2], the system named is PANC-01 human pancreatic cancer cell line. As to the kind of experiment: Cell growth assay (SRB) in PANC-01. As to conditions: for IC50: Homo sapiens, Pancreatic cancer cell; for Ratio of IC50 in the presence of, compared to in the absence of, dipyridamole: acetylated 4-N-acyl derivatives (Table 7); for Ratio of IC50 in the presence of dipyridamole / IC50 in the absence of dipyridamole: 4-N-acyl and 4-N-phosphoryl derivatives (Table 5). The procedure: as §1, §2, §3, §4, §5

In assay [3] the test system is A549/WT wild type human lung adenocarcinoma cell line. As to the kind of experiment: Cell growth assay (SRB) in A549/WT. As to conditions: for Ratio of IC50 in the presence of, compared to in the absence of, dipyridamole / Ratio of IC50 in the presence of dipyridamole / IC50 in the absence of dipyridamole: A549/WT; for Ratio of IC50 in the presence of, compared to in the absence of, dipyridamole: acetylated 4-N-acyl derivatives (Table 7); for IC50: Homo sapiens, A549, A549/WT; for Ratio of IC50 in the presence of dipyridamole / IC50 in the absence of dipyridamole: 4-N-acyl and 4-N-phosphoryl derivatives (Table 5). The procedure:
as §1, §2, §3, §4, §5

In assay [4] the test system is BXPC-3 epithelial human pancreatic adenocarcinoma cells. The assay is described as follows: Cell growth assay (SRB) in BXPC-3. As to conditions: for Ratio of IC50 in the presence of, compared to in the absence of, dipyridamole / Ratio of IC50 in the presence of dipyridamole / IC50 in the absence of dipyridamole: BXPC-3; for Ratio of IC50 in the presence of, compared to in the absence of, dipyridamole: acetylated 4-N-acyl derivatives (Table 7); for IC50: Homo sapiens, BXPC-3, BXPC-3; for Ratio of IC50 in the presence of dipyridamole / IC50 in the absence of dipyridamole: 4-N-acyl and 4-N-phosphoryl derivatives (Table 5). The procedure:
as §1, §2, §3, §4, §5

[5] abbreviates: acetylated 4-N-acyl derivatives (Table 6).
[6] abbreviates: 4-N-acyl and 4-N-phosphoryl derivatives (Table 4).

The structures appear in SMILES notation.

For the compound `C#CCOC(=O)Nc1ccn(C2OC(COC(C)=O)C(OC(C)=O)C2(F)F)c(=O)n1` (stereo not shown) [Derivative 18], the half-maximal inhibitory concentration (IC50) was 610 nM in assay [1] (setting [5]), 6600 nM in assay [2] (setting [5]), 900 nM in assay [3] (setting [5]) and 720 nM in assay [4] (setting [5]). The “Ratio of IC50 in the presence of, compared to in the absence of, dipyridamole” value (“Ratio of IC50 … in the absence of, dipyridamole” below) in assay [1] is reported as 12.7; in assay [2], 3.1; in assay [3], 6.5; in assay [4], 10.8.
Consider `O=C(Nc1ccn(C2OC(CO)C(O)C2(F)F)c(=O)n1)OCCCl` (stereo not shown) [Derivative 3A], for which the IC50 in assay [1] (setting [6]) stood at 610 nM; in assay [2] (setting [6]), 3000 nM; in assay [3] (setting [6]) it was 950 nM; in assay [4] (setting [6]), 500 nM. For the same compound, the “Ratio of IC50 in the presence of dipyridamole / IC50 in the absence of dipyridamole” value in assay [1] is given as 40.9; in assay [2] it was 0.6; in assay [3] it was 10.5; in assay [4] it was 27.
In the case of `O=C1OCCN1c1ccn(C2OC(CO)C(O)C2(F)F)c(=O)n1` (stereo not shown) [Derivative 3B], the IC50 in assay [1] (setting [6]) was determined as 100 nM; in assay [2] (setting [6]) it was 380 nM; in assay [3] (setting [6]) it was 160 nM; in assay [4] (setting [6]), 100 nM. In addition, the “Ratio of IC50 in the presence of dipyridamole / IC50 in the absence of dipyridamole” value in assay [1] came to 25; in assay [2], 23; in assay [3] it was 18.1; in assay [4], 24.
For `CCCCOC(=O)Nc1ccn(C2OC(CO)C(O)C2(F)F)c(=O)n1` (stereo not shown) [Derivative 2], the IC50 is 460 nM in assay [1] (setting [6]), 2450 nM in assay [2] (setting [6]), 700 nM in assay [3] (setting [6]) and 340 nM in assay [4] (setting [6]). Moreover, the “Ratio of IC50 in the presence of dipyridamole / IC50 in the absence of dipyridamole” value was determined as 8 in assay [1], 2.4 in assay [2], 3.4 in assay [3] and 3.7 in assay [4].
Turning to `CC(=O)Nc1ccn(C2OC(COC(C)=O)C(OC(C)=O)C2(F)F)c(=O)n1` (stereo not shown) [Derivative 22], the IC50 in assay [1] (setting [5]) came to 260 nM; in assay [2] (setting [5]), 3700 nM; in assay [3] (setting [5]), 400 nM; in assay [4] (setting [5]) it was 450 nM. For the same compound, the “Ratio of IC50 … in the absence of, dipyridamole” value in assay [1] came out at 13.4; in assay [2], 1.6; in assay [3], 4; in assay [4], 4.1.
`COc1cc(COC(=O)Nc2ccn(C3OC(COC(C)=O)C(OC(C)=O)C3(F)F)c(=O)n2)c([N+](=O)[O-])cc1OC` (stereo not shown) [Derivative 20]: the IC50 was determined as 570 nM in assay [1] (setting [5]), 3900 nM in assay [2] (setting [5]), 620 nM in assay [3] (setting [5]) and 600 nM in assay [4] (setting [5]). The “Ratio of IC50 … in the absence of, dipyridamole” value in assay [1] was found to be 17.54; in assay [2], 4; in assay [3], 7.5; in assay [4] it was 4.6.
Regarding `CC(COC(=O)Nc1ccn(C2OC(CO)C(O)C2(F)F)c(=O)n1)c1ccccc1[N+](=O)[O-]` (stereo not shown) [Derivative 6], the half-inhibitory concentration (IC50) was 430 nM in assay [1] (setting [6]), 1600 nM in assay [2] (setting [6]), 500 nM in assay [3] (setting [6]) and 340 nM in assay [4] (setting [6]). The “Ratio of IC50 in the presence of dipyridamole / IC50 in the absence of dipyridamole” value in assay [1] stood at 11; in assay [2], 4; in assay [3], 11; in assay [4] it was 13.1.
On to `CC(=O)OCC1OC(n2ccc(NC(=O)OCCCl)nc2=O)C(F)(F)C1OC(C)=O` (stereo not shown) [Derivative 15], for which the IC50 in assay [1] (setting [5]) worked out at 4000 nM; in assay [2] (setting [5]) it was 10000 nM; in assay [3] (setting [5]), 3700 nM; in assay [4] (setting [5]), 3000 nM. Moreover, the “Ratio of IC50 … in the absence of, dipyridamole” value in assay [1] was 4.5; in assay [2] it was 2.5; in assay [3] it was 3.7; in assay [4], 3.3.
For `CC(=O)OCC1OC(n2ccc(N3CCOC3=O)nc2=O)C(F)(F)C1OC(C)=O` (stereo not shown) [Derivative 16], the IC50 in assay [1] (setting [5]) was determined as 4200 nM; in assay [2] (setting [5]), 25000 nM; in assay [3] (setting [5]) it was 6200 nM; in assay [4] (setting [5]), 5000 nM. Also, the “Ratio of IC50 … in the absence of, dipyridamole” value came out at 3.8 in assay [1], 1 in assay [2], 2.7 in assay [3] and 3.4 in assay [4].
For `CC(=O)OCC1OC(n2ccc(NC(=O)OCC(C)C)nc2=O)C(F)(F)C1OC(C)=O` (stereo not shown) [Derivative 21], the IC50 was found to be 4300 nM in assay [1] (setting [5]), 25000 nM in assay [2] (setting [5]), 8000 nM in assay [3] (setting [5]) and 3200 nM in assay [4] (setting [5]). The “Ratio of IC50 … in the absence of, dipyridamole” value was 3.7 in assay [1], 1 in assay [2], 2.6 in assay [3] and 2.8 in assay [4].
For `C#CCOC(=O)Nc1ccn(C2OC(CO)C(O)C2(F)F)c(=O)n1` (stereo not shown) [Derivative 5], the IC50 in assay [1] (setting [6]) was 380 nM; in assay [2] (setting [6]), 1850 nM; in assay [3] (setting [6]) it was 450 nM; in assay [4] (setting [6]) it was 240 nM. In addition, the “Ratio of IC50 in the presence of dipyridamole / IC50 in the absence of dipyridamole” value is 13 in assay [1], 2.7 in assay [2], 11.1 in assay [3] and 23 in assay [4].
For the compound `CC(=O)OCC1OC(n2ccc(NC(=O)OCC(C)c3ccccc3[N+](=O)[O-])nc2=O)C(F)(F)C1OC(C)=O` (stereo not shown) [Derivative 19], the IC50 in assay [1] (setting [5]) was determined as 1150 nM; in assay [2] (setting [5]) it was 8000 nM; in assay [3] (setting [5]) it was 1600 nM; in assay [4] (setting [5]), 770 nM. Moreover, the “Ratio of IC50 … in the absence of, dipyridamole” value in assay [1] is reported as 3.5; in assay [2], 1.1; in assay [3], 15; in assay [4], 8.
For `CC(C)COC(=O)Nc1ccn(C2OC(CO)C(O)C2(F)F)c(=O)n1` (stereo not shown) [Derivative 8], the IC50 in assay [1] (setting [6]) is 170 nM; in assay [2] (setting [6]) it was 480 nM; in assay [3] (setting [6]), 240 nM; in assay [4] (setting [6]), 150 nM. Further, the “Ratio of IC50 in the presence of dipyridamole / IC50 in the absence of dipyridamole” value came to 14 in assay [1], 4.2 in assay [2], 10.4 in assay [3] and 25 in assay [4].
Take `CCOC(=O)Nc1ccn(C2OC(COC(C)=O)C(OC(C)=O)C2(F)F)c(=O)n1` (stereo not shown) [Derivative 13]: the IC50 in assay [1] (setting [5]) came out at 6800 nM; in assay [2] (setting [5]), 25000 nM; in assay [3] (setting [5]), 6300 nM; in assay [4] (setting [5]) it was 5000 nM. For the same compound, the “Ratio of IC50 … in the absence of, dipyridamole” value in assay [1] turned out to be 3.6; in assay [2] it was 1; in assay [3], 2.85; in assay [4] it was 2.8.
